In patent US8637499B2, “Benzoxazepines as inhibitors of PI3K/mTOR and methods of their use and manufacture” (Exelixis, Inc., priority 2009, dated 2014):
pIC50: −log10 of the molar value.

Target: PI3Kα (Homo sapiens, UniProt P42336)
Experiment: PI3K Biochemical Assays (ATP consumption, luciferase-luciferin chemiluminescence)
Settings: PI3Kα 1.5 nM, ATP 1 μM, PIP2 10 μM; percent of ATP consumed
Experimental: PI3Kα activity is measured as the percent of ATP consumed following the kinase reaction using luciferase-luciferin-coupled chemiluminescence. Reactions were conducted in 384-well white, medium binding microtiter plates (Greiner). Kinase reactions were initiated by combining test compounds, ATP, substrate (PIP2), and kinase in a 20 μL volume in a buffer solution. The standard PI3Kalpha assay buffer is composed 50 mM Tris, pH 7.5, 1 mM EGTA, 10 mM MgCl2, 1 mM DTT and 0.03% CHAPS. The standard assay concentrations for enzyme, ATP, and substrate are 1.5 nM, 1 μM, and 10 μM, respectively. The reaction mixture was incubated at ambient temperature for approximately 2 h. Following the kinase reaction, a 10 μL aliquot of luciferase-luciferin mix (Promega Kinase-Glo) was added and the chemiluminescence signal measured using a Victor2 plate reader (Perkin Elmer). Total ATP consumption was limited to 40-60% and IC50 values of control compounds correlate well with literature references. Substituting PI3Kα with PI3KIβ, […], or […], the inhibitory activity of the compounds for the other isoforms of I3K were measured.

Sequence of PI3Kα (P42336 whole entry): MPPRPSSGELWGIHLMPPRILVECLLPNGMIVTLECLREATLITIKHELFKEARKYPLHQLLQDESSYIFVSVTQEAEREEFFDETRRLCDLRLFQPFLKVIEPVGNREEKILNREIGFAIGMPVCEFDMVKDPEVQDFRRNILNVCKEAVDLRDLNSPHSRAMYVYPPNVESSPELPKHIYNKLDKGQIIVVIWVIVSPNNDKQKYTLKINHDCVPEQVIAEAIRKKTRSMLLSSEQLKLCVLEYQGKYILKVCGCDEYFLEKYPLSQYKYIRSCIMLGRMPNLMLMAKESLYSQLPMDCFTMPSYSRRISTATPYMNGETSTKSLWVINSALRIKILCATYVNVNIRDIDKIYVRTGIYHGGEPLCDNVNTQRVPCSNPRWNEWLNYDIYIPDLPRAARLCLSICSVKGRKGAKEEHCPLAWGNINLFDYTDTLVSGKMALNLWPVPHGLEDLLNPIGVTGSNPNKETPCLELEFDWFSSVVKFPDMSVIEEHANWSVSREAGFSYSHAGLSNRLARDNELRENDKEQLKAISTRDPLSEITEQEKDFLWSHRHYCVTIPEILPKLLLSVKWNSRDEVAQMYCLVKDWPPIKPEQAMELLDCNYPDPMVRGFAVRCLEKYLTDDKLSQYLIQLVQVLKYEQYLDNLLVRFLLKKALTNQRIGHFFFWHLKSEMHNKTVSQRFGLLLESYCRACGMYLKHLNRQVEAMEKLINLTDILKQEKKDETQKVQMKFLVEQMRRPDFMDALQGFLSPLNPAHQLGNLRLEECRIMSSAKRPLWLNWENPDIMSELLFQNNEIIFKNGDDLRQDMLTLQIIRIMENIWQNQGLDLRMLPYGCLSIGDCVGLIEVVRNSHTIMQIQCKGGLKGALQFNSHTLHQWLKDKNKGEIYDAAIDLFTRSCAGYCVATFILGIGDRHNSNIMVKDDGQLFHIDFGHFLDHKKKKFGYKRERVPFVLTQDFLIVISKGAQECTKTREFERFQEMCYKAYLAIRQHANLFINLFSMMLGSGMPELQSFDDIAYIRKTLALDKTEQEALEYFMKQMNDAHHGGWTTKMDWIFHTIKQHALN
Sequence of PI3Kα (P27986 whole entry partner): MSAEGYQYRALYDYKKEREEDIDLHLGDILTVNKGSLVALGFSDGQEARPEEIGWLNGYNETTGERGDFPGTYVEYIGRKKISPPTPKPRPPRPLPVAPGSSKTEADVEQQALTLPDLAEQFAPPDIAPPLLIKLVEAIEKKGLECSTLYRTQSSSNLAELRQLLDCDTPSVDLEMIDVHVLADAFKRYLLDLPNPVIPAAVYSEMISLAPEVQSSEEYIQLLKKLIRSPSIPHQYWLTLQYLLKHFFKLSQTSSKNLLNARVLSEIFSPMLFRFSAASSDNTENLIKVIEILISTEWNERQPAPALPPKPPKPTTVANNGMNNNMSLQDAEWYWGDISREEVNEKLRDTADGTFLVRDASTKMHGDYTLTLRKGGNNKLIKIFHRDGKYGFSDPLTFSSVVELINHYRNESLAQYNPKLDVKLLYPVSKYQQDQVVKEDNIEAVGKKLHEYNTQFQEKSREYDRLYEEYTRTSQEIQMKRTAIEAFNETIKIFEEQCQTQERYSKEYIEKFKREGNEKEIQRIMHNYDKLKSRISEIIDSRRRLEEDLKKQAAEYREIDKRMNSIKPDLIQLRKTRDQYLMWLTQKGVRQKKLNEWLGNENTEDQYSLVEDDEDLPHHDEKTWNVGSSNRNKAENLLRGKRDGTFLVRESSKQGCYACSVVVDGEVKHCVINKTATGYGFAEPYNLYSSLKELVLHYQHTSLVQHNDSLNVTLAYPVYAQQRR

| Compound | pIC50 |
| --- | --- |
| Cc1nc2ccc(-c3ccc4c(c3)CN(C(=O)N3CC[C@H](O)C3)CCO4)cc2[nH]1 [Compound 82, (3S)-1-{[7-(2-methyl-1H-benzimidazol-6-yl)-2,3-dihydro-1,4-benzoxazepin-4(5H)-yl]carbonyl}pyrrolidin-3-ol] | 5.52 to 6.00 |
| Cc1nc2ccc(-c3ccc4c(c3)CN(C(=O)N3CCCC3)CCO4)cc2[nH]1 [Compound 87, 7-(2-methyl-1H-benzimidazol-6-yl)-4-(pyrrolidin-1-ylcarbonyl)-2,3,4,5-tetrahydro-1,4-benzoxazepine] | 6.00 to 6.30 |
| Cc1nc2ccc(-c3ccc4c(c3)CN(C(=O)N3CC[S+]([O-])CC3)CCO4)cc2[nH]1 [Compound 101, 7-(2-methyl-1H-benzimidazol-6-yl)-4-[(1-oxidothiomorpholin-4-yl)carbonyl]-2,3,4,5-tetrahydro-1,4-benzoxazepine] | 5.52 to 6.00 |
| Cc1nc2ccc(-c3ccc4c(c3)CN(C(=O)N3CCN(C)CC3c3ccccc3)CCO4)cc2[nH]1 (stereo not shown) [Compound 144, 7-(2-methyl-1H-benzimidazol-6-yl)-4-[(4-methyl-2-phenylpiperazin-1-yl)carbonyl]-2,3,4,5-tetrahydro-1,4-benzoxazepine] | 5.52 to 6.00 |
| Cc1nc2ccc(-c3ccc4c(c3)CN(C(=O)N3CCOCC3)CCO4)cc2[nH]1 [Compound 132, 7-(2-methyl-1H-benzimidazol-6-yl)-4-(morpholin-4-ylcarbonyl)-2,3,4,5-tetrahydro-1,4-benzoxazepine] | 6.00 to 6.30 |
| Cc1nc2ccc(-c3ccc4c(c3)CN(C(=O)N3CC[C@@H](O)C3)CCO4)cc2[nH]1 [Compound 78, (3R)-1-{[7-(2-methyl-1H-benzimidazol-6-yl)-2,3-dihydro-1,4-benzoxazepin-4(5H)-yl]carbonyl}pyrrolidin-3-ol] | 6.00 to 6.30 |
| Cc1nc2ccc(-c3ccc4c(c3)CN(C(=O)N3CCN(c5ccc([N+](=O)[O-])cc5)CC3)CCO4)cc2[nH]1 [Compound 168, 7-(2-methyl-1H-benzimidazol-6-yl)-4-{[4-(4-nitrophenyl)piperazin-1-yl]carbonyl}-2,3,4,5-tetrahydro-1,4-benzoxazepine] | 6.30 to 6.70 |
| CCOC(=O)CN(Cc1ccccc1)C(=O)N1CCOc2ccc(-c3ccc4nc(C)[nH]c4c3)cc2C1 [Compound 151, ethyl N-{[7-(2-methyl-1H-benzimidazol-6-yl)-2,3-dihydro-1,4-benzoxazepin-4(5H)-yl]carbonyl}-N-(phenylmethyl)glycinate] | 5.52 to 6.00 |
| Cc1nc2ccc(-c3ccc4c(c3)CN(C(=O)N3CCN(C(=O)c5ccco5)CC3)CCO4)cc2[nH]1 [Compound 158, 4-{[4-(furan-2-ylcarbonyl)piperazin-1-yl]carbonyl}-7-(2-methyl-1H-benzimidazol-6-yl)-2,3,4,5-tetrahydro-1,4-benzoxazepine] | 5.52 to 6.00 |
| Cc1nc2ccc(-c3ccc4c(c3)CN(C(=O)N3CCCCC3c3cc(C(F)(F)F)cc(C(F)(F)F)c3)CCO4)cc2[nH]1 (stereo not shown) [Compound 115, 4-({2-[3,5-bis(trifluoromethyl)phenyl]piperidin-1-yl}carbonyl)-7-(2-methyl-1H-benzimidazol-6-yl)-2,3,4,5-tetrahydro-1,4-benzoxazepine] | 5.52 to 6.00 |
